Results taken from ChEMBL document CHEMBL1275569, “Plasmid-mediated 16S rRNA methylases among extended-spectrum beta-lactamase-producing Enterobacteriaceae isolates” (2008).
≈ marks a conversion by molar mass, not a printed value.

How the values were obtained:
Escherichia coli [1] = test: Antimicrobial activity against armA positive Escherichia coli TOP10 producing beta lactamase CTX-M-3 with plasmid MEZ by Etest method; format: functional
Escherichia coli [2] = test: Antimicrobial activity against Escherichia coli TOP10 by Etest method; format: functional
Escherichia coli [3] = test: Antimicrobial activity against Escherichia coli TOP10 harboring plasmid VOG2 expressing CTX-M-14 and AAC(6 )-Ib gene by Etest method; format: functional
Escherichia coli [4] = test: Antimicrobial activity against armA positive Escherichia coli TOP10 producing beta lactamase CTX-M-3 with plasmid BEH by Etest method; format: functional
Escherichia coli [5] = test: Antimicrobial activity against armA positive Escherichia coli COP producing beta lactamase CTX-M-14 by Etest method
Escherichia coli [6] = test: Antimicrobial activity against armA positive Escherichia coli TOP10 producing beta lactamase CTX-M-3 with plasmid DU by Etest method; format: functional
Escherichia coli [7] = test: Antimicrobial activity against rmtB positive Escherichia coli VOG producing beta lactamase CTX-M-14 by Etest method; format: functional
Enterobacter cloacae = test: Antimicrobial activity against armA positive Enterobacter cloacae BEH producing beta lactamase CTX-M-3 by Etest method; format: functional
Escherichia coli [8] = test: Antimicrobial activity against armA positive Escherichia coli MEZ producing beta lactamase CTX-M-3 by Etest method; format: functional
Escherichia coli [9] = test: Antimicrobial activity against beta lactamase CTX-M-14 producing Escherichia coli TOP10 harboring plasmid COP2 by Etest method; format: functional
Klebsiella pneumoniae = test: Antimicrobial activity against armA positive Klebsiella pneumoniae DU producing beta lactamase CTX-M-3 by Etest method; format: functional
Escherichia coli [10] = test: Antimicrobial activity against armA positive Escherichia coli TOP10 harboring plasmid COP1 by Etest method; format: functional
Escherichia coli [11] = test: Antimicrobial activity against Escherichia coli TOP10 harboring plasmid VOG1 expressing RmtB, TEM-1, and QepA gene by Etest method; format: functional

| Molecule | MIC (Escherichia coli [1]) [µg/mL] | MIC (Escherichia coli [2]) [µg/mL] | MIC (Escherichia coli [3]) [µg/mL] | MIC (Escherichia coli [4]) [µg/mL] | MIC (Escherichia coli [5]) [µg/mL] | MIC (Escherichia coli [6]) [µg/mL] | MIC (Escherichia coli [7]) [µg/mL] | MIC (Enterobacter cloacae) [µg/mL] | MIC (Escherichia coli [8]) [µg/mL] | MIC (Escherichia coli [9]) [µg/mL] | MIC (Klebsiella pneumoniae) [µg/mL] | MIC (Escherichia coli [10]) [µg/mL] | MIC (Escherichia coli [11]) [µg/mL] |
| --- | --- | --- | --- | --- | --- | --- | --- | --- | --- | --- | --- | --- | --- |
| NCC[C@H](O)C(=O)N[C@@H]1C[C@H](N)[C@@H](O[C@H]2O[C@H](CN)[C@@H](O)[C@H](O)[C@H]2O)[C@H](O)[C@H]1O[C@H]1O[C@H](CO)[C@@H](O)[C@H](N)[C@H]1O [AMIKACIN] | > 256 | 1 (≈ 1.71 µM) | 1.5 (≈ 2.56 µM) | > 256 | > 256 | > 256 | > 256 | > 256 | > 256 | 1 (≈ 1.71 µM) | > 256 | – | – |
| NC[C@H]1O[C@H](O[C@H]2[C@H](O)[C@@H](O[C@H]3O[C@H](CO)[C@@H](O)[C@H](N)[C@H]3O)[C@H](N)C[C@@H]2N)[C@H](N)C[C@@H]1O [TOBRAMYCIN] | > 256 | 0.38 (≈ 0.813 µM) | 3 (≈ 6.42 µM) | > 256 | > 256 | > 256 | > 256 | > 256 | > 256 | 0.19 (≈ 0.406 µM) | > 256 | – | – |
| CCn1cc(C(=O)O)c(=O)c2cc(F)c(N3CCNCC3)cc21 [NORFLOXACIN] | 0.016 (≈ 0.0501 µM) | < 0.016 | < 0.016 | 0.016 (≈ 0.0501 µM) | > 256 | 0.016 (≈ 0.0501 µM) | > 256 | 1 (≈ 3.13 µM) | > 256 | < 0.016 | 0.75 (≈ 2.35 µM) | < 0.016 | 0.032 (≈ 0.1 µM) |
| CO/N=C(\C(=O)N[C@@H]1C(=O)N2C(C(=O)O)=C(COC(C)=O)CS[C@H]12)c1csc(N)n1 [CEFOTAXIME] | > 32 | 0.047 (≈ 0.103 µM) | – | > 32 | > 32 | > 32 | > 32 | > 32 | > 32 | 8 (≈ 17.6 µM) | > 32 | 0.047 (≈ 0.103 µM) | 0.047 (≈ 0.103 µM) |
| CCN[C@@H]1C[C@H](N)[C@@H](O[C@H]2OC(CN)=CC[C@H]2N)[C@H](O)[C@H]1O[C@H]1OC[C@](C)(O)[C@H](NC)[C@H]1O [NETILMICIN] | > 256 | 0.25 (≈ 0.526 µM) | 1.5 (≈ 3.15 µM) | > 256 | > 256 | > 256 | > 256 | > 256 | > 256 | 0.125 (≈ 0.263 µM) | > 256 | – | – |
| GENTAMICIN | > 256 | 0.25 | 0.25 | > 256 | – | > 256 | > 256 | > 256 | > 256 | 0.125 | > 256 | > 256 | > 256 |
| C[C@@H](O)[C@H]1C(=O)N2C(C(=O)O)=C(SCCNC=N)C[C@H]12 [IMIPENEM ANHYDROUS] | 0.19 (≈ 0.635 µM) | 0.19 (≈ 0.635 µM) | 0.19 (≈ 0.635 µM) | 0.19 (≈ 0.635 µM) | 0.19 (≈ 0.635 µM) | 0.19 (≈ 0.635 µM) | 0.19 (≈ 0.635 µM) | 0.19 (≈ 0.635 µM) | 0.19 (≈ 0.635 µM) | 0.19 (≈ 0.635 µM) | 0.19 (≈ 0.635 µM) | 0.19 (≈ 0.635 µM) | 0.19 (≈ 0.635 µM) |
| O=C(O)c1cn(C2CC2)c2cc(N3CCNCC3)c(F)cc2c1=O [CIPROFLOXACIN] | < 0.002 | < 0.002 | – | < 0.002 | > 32 | < 0.002 | > 32 | – | > 32 | – | 0.125 (≈ 0.377 µM) | – | – |
| CC(C)(O/N=C(\C(=O)N[C@@H]1C(=O)N2C(C(=O)[O-])=C(C[n+]3ccccc3)CS[C@H]12)c1csc(N)n1)C(=O)O [CEFTAZIDIME] | 3 (≈ 5.49 µM) | 0.38 (≈ 0.695 µM) | 2 (≈ 3.66 µM) | 8 (≈ 14.6 µM) | 1 (≈ 1.83 µM) | 2 (≈ 3.66 µM) | 6 (≈ 11 µM) | 16 (≈ 29.3 µM) | 3 (≈ 5.49 µM) | 1 (≈ 1.83 µM) | 2 (≈ 3.66 µM) | 0.38 (≈ 0.695 µM) | 0.38 (≈ 0.695 µM) |
